Assays:
[1] = background statement; cited from earlier work
[2] = Solubility of PRASL in the adhesive matrix; format: physicochemical; conditions: acrylate adhesive matrix DuroTak 387-2287
Text: The selection of suitable adhesive matrices occurs based on the solubility of PRASL in the adhesive matrices. Suitable adhesive matrices for the present invention are those in which the solubility of PRASL is between 0.1 to 5%. Adhesive matrices, in which the solubility of PRASL is between 0.1 to 2%, have proven to be especially suitable.
If the solubility of the adhesive matrix used for PRASL is larger than 2 to 5%, as e.g. in the case of the acrylate adhesive matrix, DuroTak 387-2287, the entire effective ingredient amount dissolves after film-formation and the advantages of the amorphous effective ingredient dispersion according to the present invention cannot be employed.

Solubility of the adhesive matrix for PRASL [2]: 2 to 5%
SMILES: O=C1OCc2cc(NC(=O)[C@](O)(CC3(c4cc(C(F)(F)F)ccc4F)CC3)C(F)(F)F)ccc21 [PRASL, (R)-3-{1-[2-fluoro-5-(trifluoromethyl)-phenyl]-cyclopropyl}-2-hydroxy-N-(phthalid-5-yl)-2-(trifluoromethyl)-propanamide]
Daily dosage that activates pharmacological effects [1]: 30 micrograms

Reference: patent US20060134188A1, “Transdermal pharmaceutical preparation with a progesterone A-specific ligand (PRASL) as active ingredient” (priority 2004, published 2006)
